# Values joined by “and” are separate entries in the source; they are usually repeats but may differ in a detail not shown here. Equal values may be shown once.
# Key:
# Assay type in all cases: physicochemical
# [1] = Mean particle size (D50) by laser light diffraction
# Description: The term ‘mean particle size’ as used herein means the particle size distribution of 50% of the population of the particles is less than the specified value. The particle size was measured using laser light diffraction method of particle size analysis.
# Tapped density = assay: Tapped density
# Text: The term ‘tapped density’ as used herein means that density attained after mechanically tapping a receptacle containing the powder sample.
# [2] = In vitro cascade impactor test (fine particle fraction/dose, MMAD, GSD, deposition), USP <601>; conditions: applicant's patented device
# Text: A cascade impactor is a multi-stage sampling device for determining the size distribution of a particulate aerosol. The aerosol flows into the impactor whereupon it impinges upon a sequence of solids discs. Each disc (which represents a ‘stage’) is contained within a flow chamber and each chamber is connected in a vertical arrangement to the previous and next chamber in the sequence. Larger particles impact on the first disc and are captured. The sampling velocity increases for each successive chamber/disc so that successively smaller particles are collected. The final stage is typically a fine filter septum. Up to 10 stages are often used which divides the size distribution into an equivalent number of portions. The present invention may use eight Stage Sampler which meets the guidelines of the various world pharmacopoeias (e.g., United States Pharmacopoeia Chapter 601 “USP <601>”) to characterize metered-dose (MDI) and dry powder-dose inhalers (DPI), nebulizers, nasal sprays and other pulmonary drugs or a Next generation impactor (NGI) by Anderson. The testing of inhalation drugs goes hand and hand with cascade impactors, the size ranges collected are considered inhalable (generally <10 μm), just as the inhalation drugs should consistently arrive within the respiratory system into their target regions, the various stages represent the cut-off sizes when deposition may occur within the lungs.
# In order to evaluate the effect of the dry powder inhalation composition itself, the composition was delivered via two different inhalation devices namely, a marketed inhalation device, namely, such as for example Rotahaler® and the applicant's own patented device. The % fine particle fraction and mass mean aerodynamic diameter was determined by testing in vitro in cascade impactor. The therapeutic efficacy of the composition of the present invention in terms of fine particle fraction was determined by a cascade impaction method official in the United States Pharmacopoeia, chapter <601>.
# The conditioned micronized salmeterol xinafoate having mean particle size of […] and a tapped density in the range of 0.20 g·cm^−3 to 0.45 g·cm^−3 was tested for fine particle fraction, mass mean aerodynamic diameter in a cascade impactor. The composition was delivered using the applicant's patented device as described in the description. The results of the in-vitro testing are provided below in Table 2:
# The composition of dry powder inhalation was subjected to fine particle dose determination. This was determined according to the procedure given in USP chapter <601>. The fine particle fraction was measured in terms of deposition at various stages as per the pharmacopoeial method. […]
# [3] = Polymorphic purity by differential scanning calorimetry (DSC); conditions: micronized, conditioned 80 hr at 40° C., 80 bar, CO2
# [4] = as above
# Description: The phrase ‘substantially free of polymorph II’ means the micronized salmeterol xinafoate having not more than 5%, preferably not more than 3%, most preferably not more than 1% of polymorph II. The polymorphic purity of the salmeterol xinafoate can be determined by any known analytical method. According to the present invention, the polymorphic purity is determined by differential scanning calorimeter (DSC). The melting points of polymorph I and polymorph II are distinct and this method can determine the presence of two.
# In one embodiment, the salmeterol xinafoate was obtained by micronizing salmeterol xinafoate by milling in a jet mill with grinding parameters are as follows: grinding pressure: 1-5 bars, feed pressure: 2-10 bars, feed rate of 0.1-10 g/min, followed by subjecting the micronized material to a temperature of about 50° C. to 90° C., wherein the conditioning cycle is carried out for a time period o about 1 hour to 120 hours, preferably, 1 to 50 hours, most preferably, 20 hrs to 40 hrs. The polymorphic purity of the resultant salmeterol xinafoate so obtained was determined by recording the differential scanning calorimetry (See FIGS. 3-5).
# The results of the polymorphic purity were determined by differential scanning calorimeter and are tabulated below
# [5] = batch D50 4.02, tapped density 0.25
# [6] = batch D50 5.99, tapped density 0.43
# [7] = micronized, before conditioning at 40° C./80 bar CO2
# [8] = micronized, conditioned 40 hr at 85° C., air, no pressure
# [9] = micronized, not conditioned (FIG. 3)
# [10] = un-micronized salmeterol xinafoate (FIG. 2)
smiles,measurement,setting,value
OCc1cc(C(O)CNCCCCCCOCCCCc2ccccc2)ccc1O (stereo not drawn) [salmeterol xinafoate],Mean particle size D50,[1]; conditioned micronized batch with tapped density 0.25,about 4.02 μms
same,Mean particle size D50,"[1]; conditioned micronized batch with tapped density 0.25, listed as salmeterol xinofoate",4.02 μms
same,Mean particle size D50,[1]; conditioned micronized batch with tapped density 0.43,about 6 μms
same,Mean particle size D50,"[1]; conditioned micronized batch with tapped density 0.43, listed as salmeterol xinofoate",5.99 μms
same,Tapped density,Tapped density; conditioned micronized batch with D50 4.02,0.25 g/mL
same,Tapped density,Tapped density; conditioned micronized batch with D50 5.99,0.43 g/mL
same,% FPF Mean,[2]; [5],41.115%
same,GSD Mean,[2]; [5],1.747
same,% FPF Mean,[2]; [6],20.91%
same,GSD Mean,[2]; [6],1.734
same,% Salmeterol xinafoate Polymorph form I,[3],85.95%
same,% Salmeterol xinafoate Polymorph form II,[3],9.09%
same,% polymorph I,[4]; [7],44.18%
same,% polymorph II,[4]; [7],34.34%
same,% Salmeterol xinafoate Polymorph form I,"[4]; micronized, conditioned 24 hr at 85° C., air, no pressure",92.78%
same,% Salmeterol xinafoate Polymorph form I,[4]; [8],96.40%
same,% Salmeterol xinafoate Polymorph form II,[4]; [8],3.66% and 3.60%
same,% polymorph I,[4]; [9],69.20%
same,% polymorph II,[4]; [9],30.80%
same,% polymorph form I,[4]; [10],88.8%
same,% polymorph form II,[4]; [10],11.20%

# From patent publication US20130064870A1, “DRY POWDER INHALATION COMPOSITION” (SUN PHARMA ADVANCED RESEARCH COMPANY LIMITED, priority 2010, published 2013)
